Results: ChEMBL document CHEMBL1201862, “PubChem BioAssay data set” (2004)
Several values for one entry are separate records, joined by “and”; a condition that tells them apart may be missing. Equal entries are not always repeated.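 Protocol summary: plate cells (96-well), add compound at 5 concentrations, incubate 48 h, interpolate endpoints linearly. The concentration for 50% growth inhibition is given as GI50.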 Activity calls are given as the source filed them. Cut-off read from the data, not from the text of the source: active = GI50 up to about 1.1 µM and inactive = higher.

Assays:
Assay in all cases: inhibition of tumour cell growth, NCI panel, 48 h
OVCAR-4 = tested on: OVCAR-4
SF-295 = tested on: SF-295
HOP-92 = tested on: HOP-92
OVCAR-8 = tested on: OVCAR-8
SF-539 = tested on: SF-539
PC-3 = tested on: PC-3
NCI-H522 = tested on: NCI-H522
M14 = tested on: M14
BT-549 = tested on: BT-549
ACHN = tested on: ACHN
K562 = tested on: K562
NCI-H460 = tested on: NCI-H460
MOLT-4 = tested on: MOLT-4
U-251 = tested on: U-251
KM12 = tested on: KM12
RPMI-8226 = tested on: RPMI-8226
SNB-19 = tested on: SNB-19
MDA-MB-435 = tested on: MDA-MB-435
MDA-MB-231 = tested on: MDA-MB-231

Measured: GI50

Cn1c2ccc3cc2c(=S)c2cc(ccc21)OCCOCCOCCOCCOCCOCCO3
inactive: OVCAR-4 > 10 µM | SF-295 > 10 µM | HOP-92 > 10 µM | OVCAR-8 > 10 µM | SF-539 > 10 µM | PC-3 > 10 µM | NCI-H522 > 10 µM | M14 > 10 µM | BT-549 > 10 µM | ACHN > 10 µM | K562 > 10 µM | NCI-H460 > 10 µM | MOLT-4 > 10 µM | U-251 > 10 µM | KM12 > 10 µM | RPMI-8226 > 10 µM | SNB-19 > 10 µM

CC1=COC(C)(C=C(C#N)C#N)CC1 (stereo not drawn)
inactive: OVCAR-4 > 100 µM | MDA-MB-435 32.4 µM | SF-295 > 100 µM | HOP-92 > 10 µM | OVCAR-8 52.6 µM | SF-539 25.1 µM | M14 78.5 µM | ACHN > 100 µM | K562 30.5 µM | NCI-H460 > 100 µM | MOLT-4 40.9 µM | U-251 > 100 µM | MDA-MB-231 67.5 µM | KM12 34.8 µM | RPMI-8226 38.5 µM | SNB-19 > 100 µM

NC(N)=NCCC[C@H](N)C(=O)NCC(=O)N[C@@H](CC(=O)O)c1ncc(NC(=O)C(F)(F)F)o1
inactive: OVCAR-4 > 25 µM | MDA-MB-435 > 25 µM | SF-295 > 25 µM | OVCAR-8 > 25 µM | SF-539 > 25 µM | PC-3 > 25 µM | NCI-H522 > 25 µM | M14 > 25 µM | BT-549 > 25 µM | ACHN > 25 µM | K562 > 25 µM | NCI-H460 > 25 µM | MOLT-4 > 25 µM | U-251 > 25 µM | KM12 > 25 µM

COc1ccc(N[S+]([O-])c2ccccc2OC)cc1 (stereo not drawn)
inactive: OVCAR-4 53.7 µM | MDA-MB-435 7.53 µM | SF-295 31.7 µM | OVCAR-8 23.7 µM | SF-539 18.2 µM | NCI-H522 5.26 µM | M14 33.3 µM | ACHN 20.4 µM | K562 8.28 µM | NCI-H460 16 µM | MOLT-4 27 µM | U-251 12.5 µM | MDA-MB-231 15 µM | KM12 4.98 µM | RPMI-8226 18.7 µM | SNB-19 36.2 µM

CCOP(=O)(OCC)C(C)(CC)NC(=O)C(C(F)(F)F)C(F)(F)F (stereo not drawn)
inactive: OVCAR-4 > 100 µM | MDA-MB-435 > 100 µM and > 87.7 µM | SF-295 > 100 µM | HOP-92 > 57 µM | OVCAR-8 > 100 µM | PC-3 > 100 µM | M14 > 100 µM | ACHN > 100 µM | NCI-H460 > 100 µM | MOLT-4 > 49.3 µM and 63.4 µM | U-251 > 100 µM | KM12 49.5 µM and 58.2 µM | RPMI-8226 33.3 µM and 21.9 µM | SNB-19 > 100 µM

O=P(O)(CN1CCN(CP(=O)(O)c2ccccc2)CCN(CP(=O)(O)c2ccccc2)CC1)c1ccccc1
inactive: OVCAR-4 32.1 µM | MDA-MB-435 93.1 µM | SF-295 > 100 µM | OVCAR-8 > 100 µM | SF-539 67.1 µM | BT-549 > 100 µM | ACHN > 100 µM | K562 > 100 µM | NCI-H460 36 µM | MOLT-4 26.4 µM | U-251 47.8 µM | KM12 47.9 µM | RPMI-8226 51.4 µM | SNB-19 > 100 µM

NC(=O)/N=C1\NCCC(=O)N1CCc1c[nH]c2ccccc12
inactive: OVCAR-4 19 µM | MDA-MB-435 17.8 µM | SF-295 41.2 µM | OVCAR-8 17.9 µM | SF-539 15.6 µM | PC-3 11.9 µM | NCI-H522 25.7 µM | M14 14.8 µM | ACHN 21.5 µM | K562 12.4 µM | NCI-H460 16.3 µM | MOLT-4 14.5 µM | U-251 45.2 µM | MDA-MB-231 8.09 µM | KM12 37.8 µM | RPMI-8226 18.7 µM | SNB-19 21.4 µM

Cc1cccc(C2SCc3nc4ccccc4n32)c1 (stereo not drawn)
inactive: OVCAR-4 28.2 µM | SF-295 30.8 µM | HOP-92 14.7 µM | OVCAR-8 36.1 µM | SF-539 33.8 µM | NCI-H522 17.7 µM | M14 26.7 µM | ACHN 24.3 µM | K562 14.2 µM | NCI-H460 27.7 µM | MOLT-4 25.9 µM | U-251 19.7 µM | KM12 19.8 µM | RPMI-8226 13.9 µM

C=CCCC1CCCCC/C1=N\N(C)C (stereo not drawn)
inactive: OVCAR-4 > 100 µM | MDA-MB-435 > 100 µM | SF-295 > 100 µM | HOP-92 > 100 µM | OVCAR-8 > 100 µM | SF-539 > 100 µM | PC-3 > 100 µM | NCI-H522 > 100 µM | M14 > 100 µM | ACHN > 100 µM | K562 > 100 µM | NCI-H460 > 100 µM | MOLT-4 > 100 µM | U-251 > 100 µM | MDA-MB-231 > 100 µM | KM12 > 100 µM | RPMI-8226 > 100 µM | SNB-19 > 100 µM

C[C@@]1(Br)C[C@@](C)(Cl)[C@@H](Br)CC1/C=C/Cl (stereo partly drawn)
inactive: OVCAR-4 24.8 µM | MDA-MB-435 16.9 µM | SF-295 14.4 µM | OVCAR-8 16 µM | SF-539 15.2 µM | PC-3 15.9 µM | M14 16.6 µM | BT-549 19.1 µM | ACHN 18.1 µM | K562 15.3 µM | NCI-H460 28.6 µM | MOLT-4 13.3 µM | U-251 19.3 µM | MDA-MB-231 20.1 µM | KM12 16.1 µM | RPMI-8226 16 µM | SNB-19 18.6 µM

CSC1=N/C(=C\c2cccs2)C(=O)N1CN1CCCCC1
inactive: MDA-MB-435 > 100 µM | SF-295 > 100 µM | HOP-92 28.2 µM | OVCAR-8 51.3 µM | PC-3 > 100 µM | M14 > 100 µM | ACHN 28 µM | K562 27.1 µM | MOLT-4 64.9 µM | U-251 79.6 µM | MDA-MB-231 > 100 µM | KM12 50.2 µM | RPMI-8226 22.1 µM

NC1=NC(=O)C2(NN1)c1ccccc1-c1ccccc12
inactive: SF-295 > 10 µM | HOP-92 > 10 µM | OVCAR-8 > 10 µM | SF-539 > 10 µM | PC-3 > 10 µM | M14 > 10 µM | ACHN 6.17 µM | K562 9.82 µM | NCI-H460 > 10 µM | MOLT-4 > 10 µM | U-251 7.62 µM | KM12 > 10 µM | RPMI-8226 > 10 µM | SNB-19 > 10 µM

N/C(=N\c1ccc(Cl)cc1)NS(=O)(=O)c1ccc(-c2ncccc2C(F)(F)F)s1
inactive: OVCAR-4 18.5 µM | SF-295 16.1 µM | HOP-92 14.7 µM | OVCAR-8 14.6 µM | SF-539 25.8 µM | PC-3 13.1 µM | NCI-H522 10.4 µM | M14 14.6 µM | BT-549 14.9 µM | ACHN 16 µM | K562 13.1 µM | NCI-H460 13.1 µM | MOLT-4 12.7 µM | U-251 13.1 µM | MDA-MB-231 13.9 µM | KM12 23.9 µM | RPMI-8226 17.3 µM | SNB-19 18.6 µM
